# Paper PMC5108032, “Discovery of a Quinoline-4-carboxamide Derivative with a Novel Mechanism of Action, Multistage Antimalarial Activity, and Potent in Vivo Efficacy” (Journal of Medicinal Chemistry, 2016)
# Assay: Mammalian cell growth inhibition counter-screen (resazurin)
# Type: cell-based, human
# Conditions: human, MRC-5 cells (normal diploid human fibroblasts)
# Description: Plasmodium falciparum screening
# Assays against P. falciparum were conducted as previously described.1 Cultures of the widely-used malaria reference strain of chloroquine-sensitive Plasmodium falciparum strain 3D7 were maintained in a 5% suspension of human red blood cells (obtained from East of Scotland Blood Transfusion Service, Ninewells Hospital, Dundee) cultured in RPMI 1640 medium (pH 7.3) supplemented with 0.5% Albumax II (Gibco Life Technologies, San Diego, CA), 12 mM sodium bicarbonate, 0.2 mM hypoxanthine and 20 mg/L gentamicin at 37°C, in a humidified atmosphere of 1% O 2, 3% CO2 with a balance of nitrogen. Growth inhibition was quantified using a fluorescence assay utilising the binding of SYBR green to double stranded DNA, which emits a fluorescent signal at 528 nm after excitation at 485nm.2 Mefloquine (potency range 30-60 nM) was used as a drug control to monitor the quality of the assay (Z’ = 0.6 to 0.8, Signal to background >3, where Z’ is a measure of the discrimination between the positive and negative controls on a screen plate). A 96-well [3H]-Hypoxanthine incorporation assay was also developed as a secondary assay in order to validate compounds from the initial screen in an orthogonal platform.3 Compound bioactivity from both assays was expressed as […]
# P. falciparum (panel of resistant strains) in vitro assay. (Swiss TPH)
# All Plasmodium strains were cultured according to Trager and Jensen and are described at www.beiresources.org (resistant strains: K1, W2, 7G8, TM90C2A, D6 and V1/S, sensitive strain:
# NF54). EC50 values were determined in vitro by measuring incorporation of the nucleic acid precursor […]
# Mammalian Cell Growth Inhibition assay
# A counter-screen against normal diploid human fibroblasts (MRC-5 cell line) was carried out to exclude non-selective, and toxic compounds. The assay was essentially carried out as described previously.4 Cells were plated and incubated overnight to allow them to adhere as monolayers. A working stock of each test compound was transferred to an intermediate 384-well plate and pre-diluted with minimum essential media (MEM). The pre-diluted stocks were then transferred onto the cell monolayers, and the plates were incubated for 68 h. Resazurin, to a final concentration of 50 μM, was added to each well, after which plates were incubated for a further 3 h and measured for fluorescence (λex=528 nm, λem=590 nm)
# In vitro Cell Assay Data Analysis.
# All data was processed using IDBS ActivityBase® raw data was converted into per cent inhibition through linear regression by setting the high inhibition control as 100% and the no inhibition control as 0%. Quality control criteria for passing plates were as follows: Z’> 0.5, S:B> 3, %CV(no inhibition < 15 . The formula used to calculate Z’ is 1 3× (St D e v _ hi gh + St D e v _ low) . […]
# All EC50 Curve fitting was undertaken using XLFit version 4.2 using Model 205 with the following 4 parametric equation: y = A + B A A + ($-&) ,where A=% inhibition at bottom, B=% […]
# inhibition at top, C= EC50, D= slope, x= inhibitor concentration and y= % inhibition. […]
# reach 100% of inhibition, B was fixed to 100 only when at least 50% of inhibition was reached.
# Plasmodium falciparum late stage (IV-V) gametocyte high content imaging assay Plasmodium falciparum NF54-pfs16-LUC-GFP stage IV-V Gametocytes were produced as described previously.5 Compounds were solubilized in DMSO and serially diluted in three concentrations per log standard curves in DM SO. One µl of compound was subsequently diluted in 25µl of water (4% DMSO) and 5µl transferred into the base of 384 well PerkinElmer CellCarrier plates. Forty-five µl of stage IV-V gametocytes (10%P in 0.1%H) were added to the imaging plates which were in turn sealed with a gas permeable membrane and incubated at 37°C, 5% CO 2, 5% O2, 90% N2 and 60% humidity […]
# Post incubation, 5µl of MitoTracker® Red CM -H2Xros (MTR) solution (0.66ug/ml) was added to all wells and the plates incubated for a further 16hours. […]
smiles,measurement,value
"O=C(NCCN1CCCC1)c1cc(-c2ccc(CN3CCOCC3)cc2Cl)nc2ccc(F)cc12 [Compound 42, 2-(2-Chloro-4-(morpholinomethyl)phenyl)-6-fluoro-N-(2-(pyrrolidin-1-yl)ethyl)quinoline-4-carboxamide]",EC50 at 68 h,> 50 µM
